“Also recorded” adds a separate entry of the source.
Legend:
microorganisms [1] = assay: Peptide activities: binding, antimicrobial, growth or phenotype altering (Table 8)
From the text: In certain embodiments, peptides described herein can have multiple activities. Thus for example, a peptide can have both binding/targeting activity and antimicrobial activity. Such peptides can be used, e.g., in a chimeric construct, for any or all of these properties. Thus, for example, a peptide designated “B” in Table 8 can be used as a targeting peptide. If it is also designated G or M it can also be used for antimicrobial activity.

bacteria = assay: Binding of targeting peptides to microorganisms (Table 3); settings: peptide binding in aqueous buffers that varied depending on peptide solubility; preferably 1x PBS
microorganisms [2] = assay: Morphology, biofilm and growth disruption by peptides (Table 5); type: cell-based; set-up: key: A: Peptide aggregates; B: Less hyphal formation; Clumps; Diffuse clumps and small polyps; F: Diffuse growth; H: Thin; I: Growth inhibition; Microcolony formation; Rippled; Small polyps; Thick; W: Halo formation on top, microlonies on bottom
From the text: In certain embodiments peptides that induce alterations in phenotype or other biological activities can also be used as antimicrobial effector moieties.

Row | Substance | Activities (microorganisms [1]) | Target(s) (microorganisms bound by the targeting peptide) (bacteria) | Organism, effect (morphology, biofilm and growth disruption) (microorganisms [2]; B. subtilis) | Organism, effect (morphology, biofilm and growth disruption) (microorganisms [2]; S. pneumoniae) | Organism, effect (morphology, biofilm and growth disruption) (microorganisms [2]; C. jejuni) | Organism, effect (morphology, biofilm and growth disruption) (microorganisms [2]; E. coli) | Organism, effect (morphology, biofilm and growth disruption) (microorganisms [2]; MRSA) | Organism, effect (morphology, biofilm and growth disruption) (microorganisms [2]; S. epidermidis) | Target(s) (microorganism bound by the targeting peptide) (bacteria) | Organism, effect (morphology, biofilm and growth disruption) (microorganisms [2]; E. faecalis) | Organism, effect (morphology, biofilm and growth disruption) (microorganisms [2]; C. albicans) | Organism, effect (morphology, biofilm and growth disruption) (microorganisms [2]; C. jeikeium)
1 | PF-569 (KSKISEYTEKEFLEFVEDIYTNNK; Peptide with targeting and/or antimicrobial activity) | G B | M. luteus; also recorded: P. mirabilis; also recorded: S. pneumoniae; also recorded: E. faecalis; also recorded: C. jeikeium | B. subtilis (D) |  |  |  |  |  |  |  |  | 
2 | PF-572 (WRASKGLPGFKAG; Peptide with targeting and/or antimicrobial activity) | G B | S. epidermidis; also recorded: M. luteus; also recorded: E. coli; also recorded: S. pneumoniae; also recorded: C. jeikeium | B. subtilis (D) | S. pneumoniae (R) |  |  |  |  |  |  |  | 
3 | PF-573 (EKKLIVKLIDSIGKSHEEIVGAG; Peptide with targeting and/or antimicrobial activity) | G B | S. epidermidis; also recorded: S. pneumoniae |  | S. pneumoniae (C) |  |  |  |  |  |  |  | 
4 | PF-576 (AYSGELPEPLVRKMSKEQVRSVMGK; Peptide with targeting and/or antimicrobial activity) | G B | M. luteus; also recorded: P. mirabilis; also recorded: E. coli; also recorded: P. aeruginosa; also recorded: C. albicans; also recorded: S. pneumoniae |  | S. pneumoniae (C) | C. jejuni (C) | E. coli (A) | MRSA (R) | S. epidermidis (A) |  |  |  | 
5 | PF-587 (ASGKYQSYLLNVYVDSKKDRLDIFDKLKAKAKFVL; Peptide with targeting and/or antimicrobial activity) | G B | S. epidermidis and M. luteus and E. coli and MRSA and S. pneumoniae and E. faecalis and C. jeikeium |  | S. pneumoniae (C) |  |  |  |  |  |  |  | 
6 | PF-589 (APLRIDEIRNSNVIDEVLDCAPKKQEHFFVVPKIIE; Peptide with targeting and/or antimicrobial activity) | G B | S. epidermidis and C. albicans and MRSA and S. pneumoniae |  | S. pneumoniae (C) |  |  | MRSA (M) |  |  |  |  | 
7 | PF-614 (GLDIYA; Peptide with targeting and/or antimicrobial activity) | G B |  |  | S. pneumoniae (R) | C. jejuni (R) |  |  | S. epidermidis (M) | S. epidermidis; also recorded: E. coli; also recorded: C. jeikeium | E. faecalis (A) |  | 
8 | PF-616 (chain 1 IVFVVTKEKK; chain 2 IVFVVTKEKK; Peptide with targeting and/or antimicrobial activity) | G B |  |  |  |  |  |  | S. epidermidis (R) | C. jeikeium | E. faecalis (A) |  | 
9 | PF-617 (chain 1 PMNAAEPE; chain 2 PMNAAEPE; Peptide with targeting and/or antimicrobial activity) | G B |  |  | S. pneumoniae (I) |  |  |  |  | P. aeruginosa; also recorded: C. albicans | E. faecalis (H) | C. albicans (H) | 
10 | PF-621 (chain 1 PPSSFLV; chain 2 PPSSFLV; Peptide with targeting and/or antimicrobial activity) | G B |  |  | S. pneumoniae (I) |  |  |  |  | S. epidermidis; also recorded: C. albicans | E. faecalis (H) |  | 
11 | PF-622 (chain 1 TREDVFSVRLINNIVNKQA; chain 2 TREDVFSVRLINNIVNKQA; Peptide with targeting and/or antimicrobial activity) | G B |  |  | S. pneumoniae (M) |  |  | MRSA (D) | S. epidermidis (D) | S. epidermidis; also recorded: P. aeruginosa; also recorded: C. albicans; also recorded: S. pneumoniae; also recorded: E. faecalis; also recorded: C. jeikeium | E. faecalis (D) |  | C. jeikeium (D)
12 | PF-623 (chain 1 VLFAVYLGALDWLFSWLTQKM; chain 2 VLFAVYLGALDWLFSWLTQKM; Peptide with targeting and/or antimicrobial activity) | G B |  |  | S. pneumoniae (D) |  |  | MRSA (D) | S. epidermidis (M) | S. epidermidis and P. aeruginosa and MRSA and S. pneumoniae and E. faecalis and C. jeikeium | E. faecalis (D) |  | C. jeikeium (R)
13 | PF-625 (chain 1 SDSTNNARTRKKARDVTTKDIDK; chain 2 SDSTNNARTRKKARDVTTKDIDK; Peptide with targeting and/or antimicrobial activity) | G B |  |  | S. pneumoniae (H) |  |  |  |  | S. epidermidis; also recorded: M. luteus; also recorded: S. pneumoniae; also recorded: C. jeikeium |  |  | 
14 | PF-626 (chain 1 KYDFDDFEPEEA; chain 2 KYDFDDFEPEEA; Peptide with targeting and/or antimicrobial activity) | G B |  |  | S. pneumoniae (H) |  |  |  |  | S. epidermidis and M. luteus and E. coli and C. albicans and MRSA and S. pneumoniae and E. faecalis and C. jeikeium |  |  | 
15 | PF-627 (chain 1 INDLLSYFTLHEK; chain 2 INDLLSYFTLHEK; Peptide with targeting and/or antimicrobial activity) | G B |  |  | S. pneumoniae (I) |  |  | MRSA (R) | S. epidermidis (H) | S. epidermidis and P. aeruginosa and MRSA and S. pneumoniae and E. faecalis and C. jeikeium | E. faecalis (H) | C. albicans (B) | 
16 | PF-635 (chain 1 MNAHGHSLIFQKMIVHAFAFFSKQKNYLYF; chain 2 MNAHGHSLIFQKMIVHAFAFFSKQKNYLYF; Peptide with targeting and/or antimicrobial activity) | G B |  |  | S. pneumoniae (D) |  |  | MRSA (D) | S. epidermidis (M) | S. epidermidis and P. aeruginosa and C. albicans and MRSA and S. pneumoniae and E. faecalis and C. jeikeium | E. faecalis (D) | C. albicans (B) | C. jeikeium (D)
17 | PF-737 (chain 1 KSSGSSASASSTAGGSSSK; chain 2 KSSGSSASASSTAGGSSSK; Peptide with targeting and/or antimicrobial activity) | G B |  |  | S. pneumoniae (D) |  |  |  |  | S. epidermidis; also recorded: S. pneumoniae |  |  | 
18 | PF-738 (chain 1 KSGATSAASGAKSGASS; chain 2 KSGATSAASGAKSGASS; Peptide with targeting and/or antimicrobial activity) | G B |  |  |  |  |  | MRSA (M) |  | S. epidermidis; also recorded: C. albicans; also recorded: C. jeikeium |  |  | 
